{"source": "patent US8778990B2", "about": "“Betulinic acid derivatives and methods of use thereof” (Trustees of Dartmouth College, priority 2008, dated 2014)", "data": [{"test_system": "RAW264.7 macrophages", "test": "Inhibition of IFNγ-induced NO production (Griess reagent)", "format": "cell-based", "conditions": "Mus musculus; RAW264.7, 20 ng/mL IFNγ, 2 h pre-treatment, 24 h", "method": "RAW264.7 macrophages were pre-treated with DMSO or drugs at various concentrations (nM) for 2 hours, and subsequently treated with 20 ng/ml IFNγ for 24 hours. NO concentration in media was determined using a Griess reagent system; cell viability was determined using WST-1 reagent. The betulinic acid derivatives are identified by their TP numbers, as shown herein and described in Example 5.\nNitric Oxide Production and Cell Viability. RAW264.7 macrophages were pre-treated with DMSO or drugs for 2 hours, and subsequently treated with recombinant mouse IFN-γ (Sigma) for 24 hours. NO concentration in media was determined using the Griess reagent system (Promega). Cell viability was determined using WST-1 reagent (Roche).", "units": {"IC50": "µM"}, "values": [{"smiles": "C=C(C)[C@@H]1CC[C@]2(C(=O)n3ccnc3)CC[C@]3(C)[C@H](CC[C@@H]4[C@@]5(C)C=C(C#N)C(=O)C(C)(C)[C@@H]5CC[C@]43C)[C@@H]12", "note": "[TP-292]", "IC50": "0.071 to 0.1"}, {"smiles": "C=C(C)[C@@H]1CC[C@]2(C(=O)NCC)CC[C@]3(C)[C@H](CCC4[C@@]5(C)C=C(C#N)C(=O)C(C)(C)[C@@H]5CC[C@]43C)[C@@H]12", "note": "(stereo partly shown) [TP-321, reference compound]", "IC50": 0.088}, {"smiles": "C=C(C)[C@@H]1CC[C@]2(C(=O)NCC(F)(F)F)CC[C@]3(C)[C@H](CC[C@@H]4[C@@]5(C)C=C(C#N)C(=O)C(C)(C)[C@@H]5CC[C@]43C)[C@@H]12", "note": "[TP-342, 2-Cyano-N-(2,2,2-trifluoroethyl)-3-oxolupa-1,20(29)-dien-28-amide]", "IC50": 0.38}, {"smiles": "C=C(C)[C@@H]1CC[C@]2(C(=O)NCC(F)F)CC[C@]3(C)[C@H](CC[C@@H]4[C@@]5(C)C=C(C#N)C(=O)C(C)(C)[C@@H]5CC[C@]43C)[C@@H]12", "note": "[TP-343, 2-Cyano-N-(2,2-difluoroethyl)-3-oxolupa-1,20(29)-dien-28-amide]", "IC50": 0.13}, {"smiles": "C=C(C)[C@@H]1CC[C@]2(C(=O)NCCF)CC[C@]3(C)[C@H](CC[C@@H]4[C@@]5(C)C=C(C#N)C(=O)C(C)(C)[C@@H]5CC[C@]43C)[C@@H]12", "note": "[TP-344, 2-Cyano-N-(2-fluoroethyl)-3-oxolupa-1,20(29)-dien-28-amide]", "IC50": 0.18}, {"smiles": "C=C(C)[C@@H]1CC[C@]2(C#N)CC[C@]3(C)[C@H](CC[C@@H]4[C@@]5(C)C=C(C#N)C(=O)C(C)(C)[C@@H]5CC[C@]43C)[C@@H]12", "note": "[TP-345, 2-Cyano-3-oxolupa-1,20(29)-dien-28-onitrile]", "IC50": "0.01 to 0.16"}]}, {"test_system": "not listed separately", "test": "TP levels in mouse brain after dietary dosing (LC/MS)", "format": "in vivo", "conditions": "CD-1 mice fed 200 or 400 mg/kg diet for 3.5 days; compared with TP-319", "method": "CD-1 mice were fed either 200 or 400 mg/kg diet of either TP-319 or TP-500 for 3.5 days, and TP levels in the brains of the mice were analyzed by LC/MS. The structures of TP-319 and TP-500 are provided herein.", "values": [{"smiles": "CC1(C)CC[C@]2(C(=O)NCC(F)(F)F)CC[C@]3(C)[C@H](C(=O)C=C4[C@@]5(C)C=C(C#N)C(=O)C(C)(C)[C@@H]5CC[C@]43C)[C@@H]2C1", "note": "[TP-500, reference compound]", "concentration in the brain": "significantly higher concentration in the brain than TP-319"}]}]}
